Laboratory results published in PubChem BioAssay AID330 (DTP/NCI, 2004).
Several values for one entry are separate records, joined by “and”; a condition that tells them apart may be missing. Identical values can stand only once. Toxic doses and inconclusive results are not listed.

System: P388 leukemia ip, CD2F1 mice, survival T/C
Experiment: NCI In Vivo Anticancer Drug Screen. Data for tumor model P388 Leukemia (intraperitoneal) in CD2F1 (CDF1) mice
Conditions: endpoint: median survival time, higher = longer survival
Outline: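 Mice carrying the transplanted tumor received test compound or vehicle. Survival was recorded in each group, and the value is the treated-group measurement divided by that of the vehicle-treated control group.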

[1] = dose: 12.5 mg/kg/injection, schedule: Q01DX005 (ip), vehicle: saline with Tween-80
[2] = dose: 25.0 mg/kg/injection, schedule: Q01DX005 (ip), vehicle: saline with Tween-80
[3] = dose: 100.0 mg/kg/injection, schedule: Q01DX001 (ip), vehicle: Klucel (hydroxypropylcellulose) (HPC)
[4] = dose: 200.0 mg/kg/injection, schedule: Q01DX001 (ip), vehicle: Klucel (hydroxypropylcellulose) (HPC)
[5] = dose: 400.0 mg/kg/injection, schedule: Q01DX001 (ip), vehicle: Klucel (hydroxypropylcellulose) (HPC)
[6] = dose: 60.0 mg/kg/injection, schedule: Q01DX005 (ip), vehicle: saline
[7] = dose: 120.0 mg/kg/injection, schedule: Q01DX005 (ip), vehicle: saline
[8] = dose: 240.0 mg/kg/injection, schedule: Q01DX005 (ip), vehicle: saline
[9] = dose: 12.5 mg/kg/injection, schedule: Q01DX009 (ip), vehicle: saline
[10] = dose: 25.0 mg/kg/injection, schedule: Q01DX009 (ip), vehicle: saline
[11] = dose: 60.0 mg/kg/injection, schedule: Q01DX005 (ip), vehicle: Klucel (hydroxypropylcellulose) (HPC)
[12] = dose: 120.0 mg/kg/injection, schedule: Q01DX005 (ip), vehicle: Klucel (hydroxypropylcellulose) (HPC)
[13] = dose: 240.0 mg/kg/injection, schedule: Q01DX005 (ip), vehicle: Klucel (hydroxypropylcellulose) (HPC)
[14] = dose: 50.0 mg/kg/injection, schedule: Q01DX005 (ip), vehicle: saline
[15] = dose: 100.0 mg/kg/injection, schedule: Q01DX005 (ip), vehicle: saline
[16] = dose: 50.0 mg/kg/injection, schedule: Q01DX009 (ip), vehicle: saline
[17] = dose: 100.0 mg/kg/injection, schedule: Q01DX009 (ip), vehicle: saline
[18] = dose: 200.0 mg/kg/injection, schedule: Q01DX009 (ip), vehicle: saline
[19] = dose: 12.5 mg/kg/injection, schedule: Q01DX005 (ip), vehicle: saline
[20] = dose: 25.0 mg/kg/injection, schedule: Q01DX005 (ip), vehicle: saline
[21] = dose: 50.0 mg/kg/injection, schedule: Q01DX005 (ip), vehicle: saline with Tween-80
[22] = dose: 100.0 mg/kg/injection, schedule: Q01DX005 (ip), vehicle: saline with Tween-80

With CCOC(=O)c1ccc(NC(=O)Nc2nc3ccccc3s2)cc1 the T/C (dose: 25.0 mg/kg/injection, schedule: Q01DX009 (ip), vehicle: distilled water + Tween-80) was 97 % of control, the T/C (dose: 50.0 mg/kg/injection, schedule: Q01DX009 (ip), vehicle: distilled water + Tween-80) was 97 % of control and the T/C (dose: 100.0 mg/kg/injection, schedule: Q01DX009 (ip), vehicle: distilled water + Tween-80) was 90 % of control. For the same compound, the T/C (dose: 200.0 mg/kg/injection, schedule: Q01DX009 (ip), vehicle: distilled water + Tween-80) was 90 % of control and the T/C (dose: 400.0 mg/kg/injection, schedule: Q01DX009 (ip), vehicle: distilled water + Tween-80) was 90 % of control.

For O=c1c2ccccc2oc2cc3c(c(O)c12)CCCC3, the T/C [1] was 91 % of control and the T/C [2] was 97 % of control.

In the case of N=C(N)c1ccc2oc(/C=C/c3nc4ccc(C(=N)N)cc4[nH]3)cc2c1, the T/C [3] is reported as 98 % of control, the T/C [4] is reported as 96 % of control and the T/C [5] is reported as 98 % of control.

With NC(=O)[C@@H]1CCCN1C(=O)c1cccnc1 the T/C [6] was 98 % of control, the T/C [7] was 97 % of control and the T/C [8] was 103 % of control.

In the case of O=[N+]([O-])O.[Cu+2].[NH-]CC[NH-].[NH-]CC[NH-], the T/C (dose: 3.12 mg/kg/injection, schedule: Q01DX009 (ip), vehicle: saline) is reported as 100 % of control, the T/C (dose: 6.25 mg/kg/injection, schedule: Q01DX009 (ip), vehicle: saline) is reported as 100 % of control and the T/C [9] is reported as 100 % of control. For the same compound, the T/C [10] was 92 % of control.

In the case of O=C1NCC(=O)N2CCCC12 (stereo not given), the T/C [6] is reported as 99 % of control, the T/C [7] is reported as 100 % of control and the T/C [8] is reported as 107 % of control.

For CC1CC(C)CN(S(=O)(=O)c2cc(Cl)c(Oc3ccc([N+](=O)[O-])cc3Cl)c(Cl)c2)C1 (stereo not given), the T/C [11] was 101 % of control, the T/C [12] was 100 % of control and the T/C [13] was 110 % of control.

In the case of O=C(Nc1ccc(F)cc1)/C(Cl)=C1/Sc2ccccc2NC1=O, the T/C (dose: 100.0 mg/kg/injection, schedule: Q01DX001 (ip), vehicle: saline with Tween-80) is reported as 102 % of control, the T/C (dose: 200.0 mg/kg/injection, schedule: Q01DX001 (ip), vehicle: saline with Tween-80) is reported as 94 % of control and the T/C (dose: 400.0 mg/kg/injection, schedule: Q01DX001 (ip), vehicle: saline with Tween-80) is reported as 94 % of control.

In the case of CCCCN=C(N=C(N)N)NCC, the T/C [14] is reported as 102 % of control and the T/C [15] is reported as 102 % of control.

COC(=O)C[n+]1ccc2ccccc2c1 was tested, and the T/C [16] was 99 % of control, the T/C [17] was 99 % of control and the T/C [18] was 95 % of control.

In the case of CC1CCCC2CCCOCN12 (stereo not given), the T/C (dose: 12.5 mg/kg/injection, schedule: Q01DX005 (ip), vehicle: Klucel (hydroxypropylcellulose) (HPC)) is reported as 107 % of control, the T/C [19] is reported as 103 % of control and the T/C (dose: 25.0 mg/kg/injection, schedule: Q01DX005 (ip), vehicle: Klucel (hydroxypropylcellulose) (HPC)) is reported as 106 % of control. For the same compound, the T/C [20] was 99 % of control, the T/C (dose: 50.0 mg/kg/injection, schedule: Q01DX005 (ip), vehicle: Klucel (hydroxypropylcellulose) (HPC)) was 104 % of control and the T/C [14] was 100 % of control and 104 % of control. The T/C (dose: 100.0 mg/kg/injection, schedule: Q01DX005 (ip), vehicle: Klucel (hydroxypropylcellulose) (HPC)) was 101 % of control and the T/C [15] was 122 % of control and 98 % of control.

With Cc1ccc(S(=O)(=O)N(Cc2ccc(Cl)cc2)S(=O)(=O)c2ccc(C)cc2)cc1 the T/C [10] was 110 % of control, the T/C [16] was 108 % of control and the T/C [17] was 100 % of control. For the same compound, the T/C (dose: 200.0 mg/kg/injection, schedule: Q01DX009 (ip), vehicle: Klucel (hydroxypropylcellulose) (HPC)) was 100 % of control.

In the case of O=C1NC(O)c2cccc(F)c2O1 (stereo not given), the T/C [21] is reported as 100 % of control and the T/C [22] is reported as 102 % of control.

O=C1C(N2CCCCC2)=C(N2CC2)C(=O)C(N2CCCCC2)=C1N1CC1 was tested, and the T/C (dose: 2.5 mg/kg/injection, schedule: Q01DX009 (ip), vehicle: saline) was 112 % of control and the T/C (dose: 10.0 mg/kg/injection, schedule: Q01DX009 (ip), vehicle: saline) was 177 % of control.

CN(C)/N=C/C=C1\N=C(c2ccccc2)OC1=O was tested, and the T/C [21] was 107 % of control, the T/C [22] was 104 % of control and the T/C (dose: 200.0 mg/kg/injection, schedule: Q01DX005 (ip), vehicle: saline with Tween-80) was 106 % of control.

For COc1ccc(C2c3cc4c(cc3OC(O)C2C)OCO4)cc1 (stereo not given), the T/C [11] was 106 % of control, the T/C [12] was 100 % of control and the T/C [13] was 101 % of control.

With CCOC(=O)/C(C#N)=C/Nc1cc(C(=O)OC)ccc1C the T/C [21] was 88 % of control and the T/C [22] was 90 % of control.

With CCCCCCCCOC(=O)c1ccccc1OP(=O)(N(C)C)N(C)C the T/C [14] was 107 % of control, the T/C [15] was 112 % of control and the T/C (dose: 200.0 mg/kg/injection, schedule: Q01DX005 (ip), vehicle: saline) was 100 % of control.

In the case of COC(=O)[C@H]1O[C@H]1c1ccccn1, the T/C (dose: 25.0 mg/kg/injection, schedule: Q01DX005 (ip), vehicle: distilled water + alcohol) is reported as 103 % of control, the T/C (dose: 50.0 mg/kg/injection, schedule: Q01DX005 (ip), vehicle: distilled water + alcohol) is reported as 106 % of control and the T/C (dose: 100.0 mg/kg/injection, schedule: Q01DX005 (ip), vehicle: distilled water + alcohol) is reported as 99 % of control. The T/C (dose: 200.0 mg/kg/injection, schedule: Q01DX005 (ip), vehicle: distilled water + alcohol) was 107 % of control.

In the case of O=C(O)Cc1cn2cc(Cl)ccc2n1, the T/C [3] is reported as 102 % of control, the T/C [4] is reported as 101 % of control and the T/C [5] is reported as 95 % of control.

For COc1cc2ccnc(C3(OC(=O)c4ccccc4)CCN(CCc4ccccc4)CC3)c2cc1OC, the T/C [9] was 96 % of control, the T/C [10] was 92 % of control and the T/C (dose: 50.0 mg/kg/injection, schedule: Q01DX009 (ip), vehicle: saline with Tween-80) was 96 % of control.

In the case of OCC(F)(F)C(F)(F)C(F)(F)CO, the T/C (dose: 100.0 mg/kg/injection, schedule: Q04DX003 (ip), vehicle: saline) is reported as 100 % of control, the T/C (dose: 200.0 mg/kg/injection, schedule: Q04DX003 (ip), vehicle: saline) is reported as 100 % of control and the T/C (dose: 400.0 mg/kg/injection, schedule: Q04DX003 (ip), vehicle: saline) is reported as 100 % of control.

With Cc1nc2ccccc2c(=O)n1/N=C/c1ccc(Cl)cc1Cl the T/C [21] was 92 % of control and the T/C [22] was 100 % of control.

With COc1ccc(CC2=CC(=O)C(C)=CC2=O)cc1 the T/C (dose: 6.25 mg/kg/injection, schedule: Q01DX005 (ip), vehicle: saline with Tween-80) was 98 % of control, the T/C [1] was 91 % of control and the T/C [2] was 97 % of control.

For C1=Cc2ccccc2C(c2ccccc2)S1 (stereo not given), the T/C [16] was 98 % of control, the T/C [17] was 88 % of control and the T/C [18] was 93 % of control. For the same compound, the T/C (dose: 400.0 mg/kg/injection, schedule: Q01DX009 (ip), vehicle: saline) was 89 % of control.

For O=C(O)Cc1ccc2c(c1O)C(=O)c1ccccc1C2=O, the T/C [19] was 98 % of control, the T/C [20] was 104 % of control and the T/C [21] was 112 % of control. For the same compound, the T/C [14] was 107 % of control.

In the case of CN1CCC/C1=N\C(=Nc1ccccc1)N1CCCC1, the T/C (dose: 6.25 mg/kg/injection, schedule: Q01DX005 (ip), vehicle: saline) is reported as 105 % of control, the T/C [19] is reported as 102 % of control and the T/C [20] is reported as 103 % of control.

For Nc1nc(=S)c2n[nH]nc2[nH]1, the T/C (dose: 11.0 mg/kg/injection, schedule: Q01DX009 (ip), vehicle: saline with Tween-80) was 101 % of control and 105 % of control, the T/C (dose: 12.5 mg/kg/injection, schedule: Q01DX009 (ip), vehicle: saline with Tween-80) was 104 % of control and the T/C (dose: 16.5 mg/kg/injection, schedule: Q01DX009 (ip), vehicle: saline with Tween-80) was 98 % of control and 103 % of control. The T/C (dose: 25.0 mg/kg/injection, schedule: Q01DX009 (ip), vehicle: saline with Tween-80) was 103 % of control and 91 % of control and the T/C (dose: 37.5 mg/kg/injection, schedule: Q01DX009 (ip), vehicle: saline with Tween-80) was 98 % of control and 101 % of control.

With CCCCC1SCC(=O)N1c1nncs1 (stereo not given) the T/C (dose: 60.0 mg/kg/injection, schedule: Q01DX005 (ip), vehicle: saline with Tween-80) was 104 % of control, the T/C (dose: 120.0 mg/kg/injection, schedule: Q01DX005 (ip), vehicle: saline with Tween-80) was 98 % of control and the T/C (dose: 240.0 mg/kg/injection, schedule: Q01DX005 (ip), vehicle: saline with Tween-80) was 103 % of control.
